# Legend:
# S. marcescens [1] = test: Dextran-coated polysaccharide nanosensors, antimicrobial susceptibility in blood-supplemented MH broth; assay type: cell-based, Serratia marcescens; conditions: 2 hours at 37° C., hour-long incubation at 25° C.
# Experimental: (§1) In order to investigate if the dextran-coated iron oxide nanoparticles can monitor the starch utilization due to bacterial metabolic activity, different populations of Escherichia coli (strain 8739 from ATCC) were grown in starch-containing MH broth (DIFCOTM, BD) for 2 hours at 37° C. For determination of the minimum inhibitory concentration, Escherichia coli (10^6 CFU), Serratia marcescens (ATCC, 106 CFU) and Shigella sonnie (strain 9290 from ATCC, 106CFU) were grown in a starch-containing MH broth (DIFCOTM, BD), for 2 hours at 37° C. in the presence or absence of ampicillin. For determination of MIC in blood, bacterial stocks (10^6 CFU) were grown in the presence or absence of ampicillin in a 5%-blood-supplemented starch-containing MH broth, for 2 hours at 37° C. […]
# (§2) Lastly, due to the fact that many bacteria can either cause septicemia or require growth in optically turbid media, it is important to assess bacterial susceptibility in these complex matrices. However, most current methods cannot be utilized for the detection of molecular targets and assessment of antimicrobial susceptibility in blood, due to the strong absorbance and scattering from the matrix's constituents, including platelets and red blood cells. […] After 45 minutes following Con A addition at room temperature, we determined that the E. coli's ampicillin MIC was 8 μg, without observing any nanoparticle precipitation.
# E. coli [2] = test: Turbidity method (24-hour incubation in MH broth) for MIC; assay type: cell-based, Escherichia coli; conditions: serial dilutions in MH broth, 24-hour incubation at 37° C.
# Experimental: Accurate determination of the minimum inhibitory concentration (MIC) can prevent adverse side effects, such as renal toxicity. Considering that the contemporary MIC determination depends on a day-long process, we examined if Au NPs can yield results faster without sacrificing reliability. Initially, E. coli (10^6 CFU) were incubated for 2 hours at 37° C. in MH broth, in the presence of different concentrations of ampicillin. Then, aliquots of these samples were incubated with Au NPs for 30 minutes at 25° C., in the presence of Con A. Based on the shifts of the surface plasmon band, the MIC was determined to be 8 μg, as the corresponding surface plasmon band shift was statistically different than the control, containing bacteria growing in the absence of antibiotic (FIG. 8A). Correlation with standard methods was achieved by inoculating serial dilutions of ampicillin in MH broth with E. coli, followed by a 24-hour long incubation at 37° C. Bacterial growth was assessed based on the broth's turbidity, whereas absence of turbidity was an indicator of successful antimicrobial susceptibility. […] This concentration was identical to the Au NP-determined MIC, though the Au NP-based method yielded the same results much faster.
# Serratia marcescens = test: Dextran-coated IO NP/Con A magnetic relaxation (ΔT2) assay of antibiotic resistance; assay type: cell-based; conditions: Serratia marcescens 10^6 CFUs, 2 hours at 37° C. in MH broth; Con A 30-minute incubation at room temperature
# Experimental: as §1
# (§3) First, we wanted to determine if magnetic IO NPs coated with dextran could be used to determine and quantify the levels of a polysaccharide (starch) in bacterial culture media. […] The samples were examined in a Bruker 0.47 T (20 MHz) magnetic relaxometer (The MiniSpec, Bruker), and the individual sample's changes in spin-spin relaxation times (ΔT2) were determined based on the formula: |ΔT2incubation time−ΔT2prior ConA|. […]
# (§4) We then determined the antibiotic susceptibility or resistance of other bacteria utilizing the IO NPs. […]
# Shigella sonnei = test: Dextran-coated IO NP/Con A magnetic relaxation (ΔT2) assay for MIC; assay type: cell-based; conditions: Shigella sonnei 10^6 CFUs, 2 hours at 37° C. in MH broth; Con A 30-minute incubation at room temperature
# Experimental: as §1, §3, §4
# E. coli [3] = test: Dextran-coated iron oxide nanoparticle (IO NP)/Con A magnetic relaxation (ΔT2) assay for MIC; assay type: cell-based, Escherichia coli; conditions: E. coli 10^6 CFUs, 2 hours at 37° C. in MH broth; Con A 30-minute incubation at room temperature
# Experimental: as §1, with “ampicillin.” for “ampicillin. For determination of MIC in blood, bacterial stocks (10^6 CFU) were grown in the presence or absence of ampicillin in a 5%-blood-supplemented starch-containing MH broth, for 2 hours at 37° C.”
# as §3
# Then, utilizing the IO NPs, we determined ampicillin's MIC. […] Specifically, the magnetic-relaxation-determined minimum inhibitory concentration was 8 μg, as at this concentration we observed a drastic change in the values of ΔT2. […]
# E. coli [4] = test: Con A-conjugated nanosensors (non-competition assay), blood cultures; assay type: cell-based, Escherichia coli; conditions: within 5 minutes after addition of bacterial sample
# Experimental: as §1
# (§5) In our first set of experiments with the aminated silica-coated nanoparticles, we determined whether these nanoparticles clustered non-specifically in the presence of Con A in solution. […]
# (§6) Then, we examined if MIC determination can be achieved using these Con A-conjugated nanosensors, in blood cultures of E. coli and S. marcescens. […] Likewise, within 5 minutes the Con A-conjugated nanosensors assessed that S. marcescens was resistant to ampicillin, further corroborating the findings that the non-competition assay format provides faster results than the competition-based assay of the dextran-coated nanosensors (FIG. 20B).
# E. coli [5] = test: Dextran-coated polysaccharide nanosensors, antimicrobial susceptibility in blood-supplemented MH broth; assay type: cell-based, Escherichia coli; conditions: 2 hours at 37° C., 45 minutes following Con A addition at room temperature
# Experimental: as §1, §2
# E. coli [6] = test: Dextran-coated gold nanoparticle (Au NP)/Con A surface plasmon band shift assay for MIC; assay type: cell-based, Escherichia coli; conditions: E. coli 10^6 CFU, 2 hours at 37° C. in MH broth; Au NPs + Con A 30 minutes at 25° C.
# Experimental: as §1, with “ampicillin.” for “ampicillin. For determination of MIC in blood, bacterial stocks (10^6 CFU) were grown in the presence or absence of ampicillin in a 5%-blood-supplemented starch-containing MH broth, for 2 hours at 37° C.”
# Accurate determination of the minimum inhibitory concentration (MIC) can prevent adverse side effects, such as renal toxicity. […] Then, aliquots of these samples were incubated with Au NPs for 30 minutes at 25° C., in the presence of Con A. Based on the shifts of the surface plasmon band, the MIC was determined to be 8 μg, as the corresponding surface plasmon band shift was statistically different than the control, containing bacteria growing in the absence of antibiotic (FIG. 8A). […] Bacterial growth was assessed based on the broth's turbidity, whereas absence of turbidity was an indicator of successful antimicrobial susceptibility. […] This concentration was identical to the Au NP-determined MIC, though the Au NP-based method yielded the same results much faster.
# S. marcescens [7] = test: Con A-conjugated nanosensors (non-competition assay), blood cultures; assay type: cell-based, Serratia marcescens; conditions: within 5 minutes after addition of bacterial sample
# Experimental: as §1, §5, §6
# E. coli [8] = test: High-throughput Au-NP/Con A assay on 96-well plate; assay type: cell-based, Escherichia coli; conditions: E. coli 10^6 CFU, Con A 30-min at 25° C.
# From the text: Finally, the potential of our Au-NP-based assay for the determination of antimicrobial susceptibility in high-throughput format was investigated. In these studies, samples of heat-inactivated E. coli (10^6 CFU) and E. coli (10^6 CFU) grown in the presence or absence of ampicillin were screened with the Au-NP on a 96-well plate using a microtiter plate reader.
smiles,measurement,setting,value
CC1(C)S[C@@H]2[C@H](NC(=O)[C@H](N)c3ccccc3)C(=O)N2[C@H]1C(=O)O [ampicillin],Drug susceptibility or resistance in blood,S. marcescens [1],drug resistance
same,Lowest ampicillin concentration where the MH broth was clear (turbidity MIC),E. coli [2],8 µg
same,Antibiotic susceptibility or resistance (changes in T2),Serratia marcescens,resistant
same,Magnetic-relaxation-determined minimum inhibitory concentration,Shigella sonnei,8 µg
same,Magnetic-relaxation-determined minimum inhibitory concentration,E. coli [3],8 µg
same,"Ampicillin MIC in blood cultures, Con A-conjugated nanosensors",E. coli [4],8 µg
same,Ampicillin MIC in blood,E. coli [5],8 µg
same,MIC (minimum inhibitory concentration) based on shifts of the surface plasmon band,E. coli [6],8 µg
same,"Drug susceptibility or resistance in blood cultures, Con A-conjugated nanosensors",S. marcescens [7],resistant
same,Categorization of sample (inhibitory or non-inhibitory),E. coli [8]; 2 μg ampicillin,non-inhibitory
same,Categorization of sample (inhibitory or non-inhibitory),E. coli [8]; 64 μg ampicillin,inhibitory
